Results published in patent US12178791B2, “Haloallylamine sulfone derivative inhibitors of lysyl oxidases and uses thereof” (Syntara Limited, priority 2018, dated 2024).
“Also recorded” adds a separate entry of the source. Structures can show the parent of a compound that is named as a salt.

Assays:
rhSSAO = rhSSAO (Homo sapiens (Human), UniProt Q16853); assay: Measurement of substrate turnover by SSAO; type: biochemical; conditions: compound 2.5 mM, relative to background (dimethyl sulfoxide only)
Protocol: In brief, the assay employed determines the substrate propensity of a compound relative to background (dimethyl sulfoxide only). Compound oxidation by rhSSAO was measured by fluorometric assay (Holt and Palcic, 2006). Briefly, rhSSAO was incubated for 2 hours at 37° C. in HEPES buffer before the addition of an equal volume of Amplex Red ([…]), horseradish peroxidase (4 U/ml), and Compound (2.5 mM) in the same buffer. The kinetics of the formation of resorufin was measured immediately using Optima reader (BMG Labtech GmbH, Ortenburg, Germany), at 37° C.

[1] = test system: scar tissue after excision of dermal tissue; assay: Rodent injury model; type: in vivo, mice; conditions: 1% solution topical
Protocol: Mice received injury by excision of dermal tissue. In the treatment group, 1% Compound 1 solution was applied topically from 24 hours post injury to 1 week post injury. Wounds were then left to heal for an additional week. Mice were euthanized at 14 days post injury and the tissue was analyzed for collagen I content, and changes in gross morphology and histology.

[2] = test system: deep dermal burn injuries; assay: Porcine burn injury model; type: in vivo, pigs; conditions: 3% topical daily for 4 weeks
Protocol: Pigs received 4×25 cm^2 deep dermal burn injuries, 2 on each flank. From the time of re-epithelialisation, on each pig, 2 wounds were treated with 3% Compound 1 cream daily for 4 weeks and 2 received control cream. Pigs were euthanized and tissue was processed for analysis.

lysyl oxidase = assay: Target engagement: lysyl oxidase activity in the aorta; type: in vivo, Wistar rats
Protocol: Sample preparation: All preparation activities were performed on ice, with buffers in presence of proteases inhibitors (PMSF: Sigma P7626, 0.25 mM, Aprotinin: Sigma A6279, 1 μL per mL) (Methods in Cell Biology, 2018; 143: 147-156). The surrounding adventitia and muscle/fat from the frozen aorta sample was removed in ice-cold Wash Buffer (0.15 M NaCl, 50 mM sodium borate, pH=8.0, with protease inhibitors) using fine forceps, under a dissecting microscope. The aorta was blotted on a Kimwipe and weighed in a 1.5 mL Eppendorf tube and left on ice. After snap-freezing the aorta in liquid nitrogen, a mortar and the pestle (stored at −80° C.) was used to pulverize the tissue. The pulverized tissue was transferred to a designated tube containing metal beads, 10× v/w Wash Buffer+protease inhibitors. The tissues was homogenized for 5 seconds using a bead-mill. The homogenate was centrifuged at 10,000×g for 10 minutes at 4° C. and the supernatant was discarded. Homogenization and washing steps were repeated twice more. […]
Assay: Pargyline (final concentration 0.5 mM) and mofegiline (final concentration 1 μM) were added to the samples. […] Plate fluorescence was then measured every 2.5 min (Ex: 544 nm/Em: 590 nm/gain: 1260; 37° C.) on Fluostar™.
[…] The responses were normalised to the activity measured in animals treated with saline (control).

kidney fibrosis (UUO) = assay: Unilateral ureteral obstruction (UUO) model of acute kidney fibrosis; type: in vivo, mice; conditions: 10 mg/kg daily orally, 14 days
Protocol: A 14-day unilateral ureteric obstruction (UUO) model of acute kidney fibrosis in mice was conducted to mimic the different stages of obstructive nephropathy leading to tubulointerstitial fibrosis in an accelerated manner UUO surgery was performed by ligation of the left ureter and induced decrease of left kidney thickness and atrophy (indicated by a significant decrease in kidney weight and ratio of kidney/body weight when compared to the contralateral side) as well as a significant increase in kidney fibrosis. Treatment groups received Compound 33 (10 mg/kg daily) orally for the duration of the study. Compound 33 increased kidney weight and thickness and reduced the area of fibrosis as measured by Picrosirius Red (FIG. 9). Captopril (˜32 mg/kg/day in drinking water) was used as a positive control.

[3] = test system: bleomycin-induced lung fibrosis; assay: Bleomycin-induced lung fibrosis model; type: in vivo, C57Bl/6 mice; conditions: daily oral gavage for 21 days
Protocol: C57Bl/6 mice were given 1.5 U/kg amounts of generic clinical Bleomycin (Blenoxane) via oropharyngeal administration. Compound 33 was dosed daily via oral gavage for 21 days, after which time, tissues were harvested and analyzed.

[4] = test system: CCl4 hepatic fibrosis / 4t1 metastasis; assay: CCl4 induced liver fibrosis with orthotopic 4t1 breast cancer cells (fibrosis associated metastasis); type: in vivo, BALB/c mice; conditions: 20 mg/kg daily ip
Protocol: Hepatic fibrosis was induced by treated of BALB/c mice twice weekly with 1 mg/kg carbon tetrachloride (CCl4) for a period of 8 wks.

[5] = vs control cream, hydrochloride

Chain of rhSSAO (Q16853 whole entry): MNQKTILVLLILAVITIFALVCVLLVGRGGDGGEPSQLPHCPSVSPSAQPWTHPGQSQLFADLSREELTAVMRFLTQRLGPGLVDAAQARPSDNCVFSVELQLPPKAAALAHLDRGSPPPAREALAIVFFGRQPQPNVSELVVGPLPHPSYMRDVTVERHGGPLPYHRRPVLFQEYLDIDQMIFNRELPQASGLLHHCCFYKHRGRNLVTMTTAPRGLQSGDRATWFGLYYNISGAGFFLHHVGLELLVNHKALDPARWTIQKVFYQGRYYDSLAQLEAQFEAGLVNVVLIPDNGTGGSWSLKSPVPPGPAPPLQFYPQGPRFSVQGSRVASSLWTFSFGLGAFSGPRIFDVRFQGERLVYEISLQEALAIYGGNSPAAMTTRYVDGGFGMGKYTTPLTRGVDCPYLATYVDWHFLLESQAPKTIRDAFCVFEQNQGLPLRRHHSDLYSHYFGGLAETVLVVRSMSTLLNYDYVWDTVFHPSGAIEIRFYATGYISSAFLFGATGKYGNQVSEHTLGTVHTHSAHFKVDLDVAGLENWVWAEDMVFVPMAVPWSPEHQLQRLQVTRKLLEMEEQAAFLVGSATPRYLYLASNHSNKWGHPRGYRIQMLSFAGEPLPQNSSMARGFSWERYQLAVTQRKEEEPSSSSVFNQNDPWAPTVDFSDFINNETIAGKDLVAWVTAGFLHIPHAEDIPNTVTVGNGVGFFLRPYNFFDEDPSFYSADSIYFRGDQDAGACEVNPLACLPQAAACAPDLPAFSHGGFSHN

Row | SMILES | Substrate activity for rhSSAO (rhSSAO) | Collagen I quantity (LCMS, normalized for protein content) ([1]; 24 hours to 1 week post injury, analysis 14 days post injury, vs control, hydrochloride) | Histology: collagen bundles in scar tissue ([1]; 14 days post injury) | Gross morphology and histology: thick collagen fibers [2] | LOX activity in treated tissue [2, 5] | total collagen I protein [2, 5] | half-life of recovery of lysyl oxidase activity (aorta) (lysyl oxidase; single oral dose) [h] | lysyl oxidase enzymatic activity in rat aorta (lysyl oxidase; single oral dose at 5, 10 or 30 mg/kg, vs untreated control) | area of fibrosis as measured by Picrosirius Red (kidney fibrosis (UUO)) | kidney weight and thickness (kidney fibrosis (UUO)) | lung weight [3] | reduction of immature (DHLNL) cross-links per lung [3] [%] | reduction of mature (PYD) cross-links per lung [3] [%] | Ashcroft score ([3]; dihydrochloride) | collagen cross-links in the liver [4] | primary tumor growth or collagen cross-links (primary tumor) [4] | liver fibrosis ([4]; 8 wks CCl4) | metastatic load in the liver ([4]; dihydrochloride)
1 | NC/C=C(\F)CS(=O)(=O)c1ccccc1 [Compound 1, (Z)-3-fluoro-4-(phenylsulfonyl)but-2-en-1-amine hydrochloride] | no significant turnover | reduction in collagen; also recorded: reduced | decreased density of bundles | reduced density | reduction; also recorded: significantly reduced | reduction; also recorded: significantly reduced | – | – | – | – | – | – | – | – | – | – | – | –
2 | NC/C=C(\F)CS(=O)(=O)c1cccc2cccnc12 [Compound 33, (Z)-3-fluoro-4-(quinolin-8-ylsulfonyl)but-2-en-1-amine dihydrochloride] | – | – | – | – | – | – | 24 | dose-dependent block | reduced | increased | significantly reduced | 37 | 45 | reduce; also recorded: significantly reduced | significantly reduced | No differences | significantly reduced | reduce; also recorded: significantly reduced
